What is called solubility is the concentration that dissolves in the medium under given conditions. For orientation: IC50 means the concentration needed to halve the response being measured. As usually defined, the AUC is the area under the concentration-time curve, a measure of exposure. By Cmax is commonly meant the peak of the concentration-time curve. Broadly, the Kd is the concentration at which binding is half-saturated.

These results are taken from ChEMBL document CHEMBL5108065 (J Med Chem, 2022).

Data set [1] can be described thus: Solubility of the compound in FeSSIF at pH 5.8. Format: physicochemical. The conditions noted are these: simulated gi fluid.
The subject of data set [2] is Plasmodium falciparum. The experiment in a line: Antimalarial activity against Plasmodium falciparum infected NSG mouse model at 50 mg/kg, po administered daily for 3 days. Format: functional, organism-based. The conditions noted are these: time 3.0 day.
The subject of data set [3] is Plasmodium falciparum. The experiment in a line: Antimalarial activity against blood stage Plasmodium infected in NSG mouse model assessed as parasite recrudescence by measuring parasitemia at 50 mg/kg, po measured 96 hrs by flow cytometry. It is filed as functional, organism-based. (In general: Flow cytometry measures light scatter and fluorescence of single cells or particles in a stream.)

Data set [4] concerns Plasmodium berghei. The experiment in a line: Antimalarial activity against Plasmodium berghei sporozoites infected in naive C57B/6 liver mouse model assessed as decrease in liver infection at 50 mg/kg, po administered twice daily for 1 to 2 days by Giemsa staining based microscopic analysis. It is filed as functional, organism-based. The following applies: time 1-2 day.
Data set [5] concerns Plasmodium berghei. The experiment in a line: Antimalarial activity against luciferase expressing Plasmodium berghei sporozoites infected in naive C57B/6 liver mouse model assessed as decrease in liver infection at 50 mg/kg, po administered twice daily on day 8 by Giemsa staining based microscopic analysis. Format: functional, organism-based. The following applies: time 8.0 day.

A short description of data set [6]: Solubility of the compound in FeSSIF. The conditions noted are these: simulated gi fluid. It is filed as physicochemical.
A short description of data set [7]: Drug metabolism in dog hepatocytes assessed as (S)-6-(2-chloro-3-((6-cyclopropylpyridin-3-yl)amino)phenyl)-2-imino-6-methyltetrahydropyrimidin-4(1H)-one metabolite formation. It is filed as ADME, cell-based, Canis lupus familiaris, Hepatocyte.
The nature of data set [8]: Drug metabolism in rat hepatocytes assessed as (S)-6-(2-chloro-3-((6-cyclopropylpyridin-3-yl)amino)phenyl)-2-imino-6-methyltetrahydropyrimidin-4(1H)-one metabolite formation. It is filed as ADME, cell-based, Hepatocyte.
The subject of data set [9] is HepG2. The experiment in a line: Cytotoxicity against human HepG2 cells assessed reduction in cell viability. It is filed as toxicity, cell-based.
The target of data set [10] is Potassium voltage-gated channel subfamily A member 5 (Homo sapiens, UniProt P22460). The experiment in a line: Inhibition of Kv1.5 (unknown origin) by patch clamp method. It is filed as toxicity.
Data set [11] has as its target T1, A-type voltage-gated potassium channel KCND3 (Homo sapiens, UniProt Q9UK17).
T1 sequence (Q9UK17 whole entry): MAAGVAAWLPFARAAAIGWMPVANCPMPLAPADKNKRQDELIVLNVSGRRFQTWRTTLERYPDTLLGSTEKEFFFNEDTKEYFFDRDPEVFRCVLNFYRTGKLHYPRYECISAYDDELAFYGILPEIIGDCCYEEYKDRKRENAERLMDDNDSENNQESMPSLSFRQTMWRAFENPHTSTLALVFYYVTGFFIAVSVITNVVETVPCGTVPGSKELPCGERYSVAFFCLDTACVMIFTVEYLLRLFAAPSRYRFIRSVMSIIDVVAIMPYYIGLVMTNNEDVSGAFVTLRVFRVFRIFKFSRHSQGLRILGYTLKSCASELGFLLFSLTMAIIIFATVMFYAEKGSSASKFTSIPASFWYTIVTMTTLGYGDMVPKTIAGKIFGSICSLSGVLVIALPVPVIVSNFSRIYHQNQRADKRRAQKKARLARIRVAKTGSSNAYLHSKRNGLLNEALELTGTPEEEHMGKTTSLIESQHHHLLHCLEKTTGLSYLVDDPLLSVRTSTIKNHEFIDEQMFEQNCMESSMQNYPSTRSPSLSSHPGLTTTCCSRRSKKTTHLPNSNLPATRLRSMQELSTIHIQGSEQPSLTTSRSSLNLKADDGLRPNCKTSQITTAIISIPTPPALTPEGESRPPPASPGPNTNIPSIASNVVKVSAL
The experiment in a line: Inhibition of Kv4.3 (unknown origin) by patch clamp method. Format: toxicity.

In data set [12] the test system is Plasmodium falciparum. The experiment in a line: Antiplasmodial activity against sensitive Plasmodium falciparum NF54 infected in human red blood cells assessed as reduction in [3H]-hypoxanthine incorporation pretreated for 48 hrs followed by [3H]-hypoxanthine addition measured after 24 hrs by scintillation counting method. It is filed as functional, organism-based.

Data set [13] has as its system Plasmodium falciparum. The data set can be described thus: Antimalarial activity against Plasmodium falciparum K1 harbouring Pf-crt, Pf-mdrl,Pf-dhfr, Pf-dhps mutated loci assessed as inhibition of parasite growth pretreated for 48 hrs followed by [3H]-hypoxanthine addition measured after 24 hrs by scintillation counting method. Format: functional, organism-based.

The subject of data set [14] is Plasmodium falciparum. The experiment in a line: Antimalarial activity against Plasmodium falciparum PH1263-C harbouring Pf-crt mutated loci assessed as inhibition of parasite growth pretreated for 48 hrs followed by [3H]-hypoxanthine addition measured after 24 hrs by scintillation counting method. It is filed as functional, organism-based.
Data set [15] concerns the target Plasmepsin X (Plasmodium falciparum (isolate 3D7), UniProt Q8IAS0). The data set can be described thus: Inhibition of PMX in Plasmodium falciparum 3D7 HA epitope.
The target in data set [16] is T2, Plasmepsin IX (Plasmodium falciparum, UniProt Q8ILG2).
T2 sequence (Q8ILG2 whole entry): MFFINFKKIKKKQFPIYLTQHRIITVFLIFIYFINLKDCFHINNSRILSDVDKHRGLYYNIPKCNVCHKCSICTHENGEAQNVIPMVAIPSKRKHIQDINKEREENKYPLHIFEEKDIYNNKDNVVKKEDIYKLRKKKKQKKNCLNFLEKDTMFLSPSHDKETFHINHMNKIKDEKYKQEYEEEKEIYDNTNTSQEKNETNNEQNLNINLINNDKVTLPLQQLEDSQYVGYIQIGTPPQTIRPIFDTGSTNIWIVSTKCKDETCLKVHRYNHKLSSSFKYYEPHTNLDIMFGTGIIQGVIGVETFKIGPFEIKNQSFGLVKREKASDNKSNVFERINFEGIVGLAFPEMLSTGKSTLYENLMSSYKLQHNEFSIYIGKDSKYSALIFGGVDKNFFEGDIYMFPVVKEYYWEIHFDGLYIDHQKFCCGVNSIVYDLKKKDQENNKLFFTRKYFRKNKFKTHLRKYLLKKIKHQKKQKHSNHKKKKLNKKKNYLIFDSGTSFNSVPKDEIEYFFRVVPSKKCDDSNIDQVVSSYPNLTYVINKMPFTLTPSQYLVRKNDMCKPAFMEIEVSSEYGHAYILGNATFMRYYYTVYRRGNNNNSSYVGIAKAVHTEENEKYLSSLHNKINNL
The data set can be described thus: Inhibition of PMIX in Plasmodium falciparum 3D7 HA epitope.

Data set [17] in a line: AUC in Cynomolgus monkey blood at 10 mg/kg, po measured at 2 to 72 hrs by LC-MS/MS analysis. It is filed as ADME, organism-based, Macaca fascicularis. The arrangement: dose 10 mg/kg, time 2-72 hrs, route po.
A short description of data set [18]: Cardiotoxicity in anesthetized guinea-pig assessed as QRS widening at 90 nM. It is filed as toxicity, Cavia porcellus. The following applies: 0.09 µM.
Data set [19] can be described thus: Cardiotoxicity in anesthetized guinea-pig assessed as QRS widening at 1600 nM. The conditions noted are these: 1.6 µM. It is filed as toxicity, Cavia porcellus.
Data set [20] is described as follows: Cmax in Han Wistar rat at 1000 mg/kg, po administered every other day for 7 days. It is filed as ADME, organism-based. Further details: dose 1000 mg/kg, time 7 day, route po. The following applies: in vivo.
Data set [21] in a line: Toxicity in Han Wistar rat assessed as effect on pupillary reflex at 250 to 1000 mg/kg, po administered every other day for 7 days. It is filed as organism-based. The conditions noted are these: in vivo, 168 h, dose 250-1000 mg/kg, time 7 day.
The nature of data set [22]: Toxicity in Han Wistar rat assessed as auto-fluorescent granule accumulation in retinal epithelium at 250 to 1000 mg/kg, po administered every other day for 7 days. The following applies: in vivo, 168 h, dose 250-1000 mg/kg, time 7 day. It is filed as organism-based.
Data set [23] can be described thus: Toxicity in Han Wistar rat assessed as effect on scotopic amplitude at 1000 mg/kg, po administered every other day for 7 days by ERG analysis. It is filed as organism-based. The following applies: in vivo, 168 h, time 7 day.
Data set [24] relates to Plasmepsin X (Plasmodium falciparum). The experiment in a line: Binding affinity to Plasmodium falciparum PMX assessed as dissociation constant by SPR analysis.

Structures are written as SMILES. Converted amounts (≈) assume the structure as drawn. The source made the active and inactive calls. The rule behind the calls is not given here.

Potassium voltage-gated channel subfamily A member 5, sequence (P22460 whole entry): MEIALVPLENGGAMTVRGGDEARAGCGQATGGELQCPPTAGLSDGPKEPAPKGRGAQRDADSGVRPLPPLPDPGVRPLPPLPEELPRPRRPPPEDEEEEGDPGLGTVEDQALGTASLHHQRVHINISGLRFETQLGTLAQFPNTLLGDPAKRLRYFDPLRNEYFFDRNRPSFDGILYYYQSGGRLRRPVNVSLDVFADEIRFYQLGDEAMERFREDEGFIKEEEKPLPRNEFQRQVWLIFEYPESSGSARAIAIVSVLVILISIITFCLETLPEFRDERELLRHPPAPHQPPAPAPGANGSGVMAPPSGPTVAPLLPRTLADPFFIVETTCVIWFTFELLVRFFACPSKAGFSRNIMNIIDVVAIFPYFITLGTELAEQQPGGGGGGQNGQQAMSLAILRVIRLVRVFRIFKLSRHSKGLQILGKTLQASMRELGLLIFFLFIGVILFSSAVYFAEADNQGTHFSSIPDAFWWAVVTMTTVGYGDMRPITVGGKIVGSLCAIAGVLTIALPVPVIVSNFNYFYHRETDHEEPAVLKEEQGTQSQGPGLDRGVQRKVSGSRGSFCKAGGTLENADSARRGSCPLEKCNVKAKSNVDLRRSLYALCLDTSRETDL
Plasmepsin X, sequence (Q8IAS0 whole entry): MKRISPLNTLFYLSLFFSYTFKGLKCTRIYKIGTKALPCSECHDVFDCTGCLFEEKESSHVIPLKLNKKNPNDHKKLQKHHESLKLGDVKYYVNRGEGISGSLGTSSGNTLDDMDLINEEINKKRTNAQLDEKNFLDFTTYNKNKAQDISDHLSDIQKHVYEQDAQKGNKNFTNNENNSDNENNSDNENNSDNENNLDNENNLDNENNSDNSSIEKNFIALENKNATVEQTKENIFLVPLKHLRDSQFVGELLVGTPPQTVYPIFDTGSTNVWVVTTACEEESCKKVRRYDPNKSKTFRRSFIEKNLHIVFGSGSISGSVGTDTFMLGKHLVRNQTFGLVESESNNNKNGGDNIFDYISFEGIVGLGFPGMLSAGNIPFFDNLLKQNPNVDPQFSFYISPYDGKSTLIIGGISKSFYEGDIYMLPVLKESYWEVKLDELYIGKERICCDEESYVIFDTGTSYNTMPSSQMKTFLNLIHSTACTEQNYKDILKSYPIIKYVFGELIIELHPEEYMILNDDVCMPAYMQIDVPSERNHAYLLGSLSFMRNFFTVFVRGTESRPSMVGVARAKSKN

On to `C[C@H]1C[C@@H](N2C(=N)N[C@](C)(c3cccc(Nc4ccc(C5CC5)nc4)c3Cl)CC2=O)CCO1`, for which the solubility in data set [1] is 959 µM (≈ 449 µg/mL); in [6], 960 µM (≈ 449 µg/mL). The outcome in data set [2], in [3], in data set [4] and in data set [5] was Active. The Drug metabolism entry in data set [7] and in [8] was “Metabolite_Detected” in each case. The IC50 in data set [9] was 16000 nM; in data set [10], 5000 nM; in data set [11] it was 28000 nM.
As to `C[C@H]1C[C@@H](N2C(=N)N[C@](C)(c3cccc(NC(=O)c4cccc(C#N)c4)c3Cl)CC2=O)CCO1`, the IC50 in data set [12] was 34.6 nM; in data set [13], 33 nM; in [14] it was 18 nM; in data set [15], 7 nM; in data set [16] it was 142 nM. In data set [17], the AUC was determined as 7.38 µM·h. In addition, the Activity result in [18], in [19], in data set [21], in data set [22] and in data set [23] was “Non-Toxic” in each case. In data set [20], the highest level (Cmax) was 25000 ng/mL. The Kd in [24] stood at 5.5 nM.
